Legend:
Experiment in all cases: Cancer cell growth inhibition
Assay type in all cases: cell-based
COLO678 = conditions: Homo sapiens, COLO-678; COLO678 (colon), 72 hr treatment
Experimental: (§1) The ability of select compounds to inhibit cell growth in various cancer cell lines are evaluated. […] The cell lines shown in Table 2 have reduced growth by at least 50% at 10 uM or lower over 72 hr treatment in growth media. The cell lines shown in Table 3 have reduced growth by at least 50% with an IC50 greater than 10 uM.
(§2) Six 10-fold compound dilutions are prepared in DMSO (e.g. 10 mM, 1 mM, 100 uM, 10 uM, 1 uM, and 0.1 uM). Single data points are acquired for each concentration. The final concentration of DMSO is 0.1%. The duration of the treatment is 72 hr. Growth inhibition is measured using Sulforhodamine B in a protein staining assay. Activity of the agents is determined by evaluation the following parameters: IC50, GI50, IC10, TGI, LC50, IC90, and GI90 (where these values can be calculated).

ACHN = conditions: Homo sapiens; ACHN (kidney), 72 hr treatment
Experimental: as §1, §2

HT1080 = conditions: Homo sapiens, HT-1080; HT1080 (connective tissue), 72 hr treatment
Experimental: as §1, §2

RD = conditions: Homo sapiens; RD (muscle), 72 hr treatment
Experimental: as §1, §2

SAOS2 = conditions: Homo sapiens, SAOS-2; SAOS2 (bone), 72 hr treatment
Experimental: as §1, §2

PANC1005 = conditions: Homo sapiens; PANC1005 (pancreas), 72 hr treatment
Experimental: as §1, §2

NCIH460 = conditions: Homo sapiens, NCI-H460; NCIH460 (lung), 72 hr treatment
Experimental: as §1, §2

SKHEP1 = conditions: Homo sapiens, SK-HEP1; SKHEP1 (liver), 72 hr treatment
Experimental: as §1, §2

786O = conditions: Homo sapiens, 786-0; 786O (kidney), 72 hr treatment
Experimental: as §1, §2

A375 = conditions: Homo sapiens, A-375; A375 (skin), 72 hr treatment
Experimental: as §1, §2

SF295 = conditions: Homo sapiens, SF-295; SF295 (brain), 72 hr treatment
Experimental: as §1, §2

SKMEL28 = conditions: Homo sapiens, SK-MEL-28; SKMEL28 (skin), 72 hr treatment
Experimental: as §1, §2

JIMT1 = conditions: Homo sapiens, JIMT-1; JIMT1 (breast), 72 hr treatment
Experimental: as §1, §2

BXPC3 = conditions: Homo sapiens, BXPC-3; BXPC3 (pancreas), 72 hr treatment
Experimental: as §1, §2

HEPG2 = conditions: Homo sapiens; HEPG2 (liver), 72 hr treatment
Experimental: as §1, §2

L-363 = conditions: Homo sapiens; L-363 (hematological), 72 hr treatment
Experimental: as §1, §2

PC3 = conditions: Homo sapiens, PC-3; PC3 (prostate), 72 hr treatment
Experimental: as §1, §2

PBMC = PBMC (hematological), 72 hr treatment
Experimental: as §1, §2

SKBR3 = conditions: Homo sapiens, SK-BR-3; SKBR3 (breast), 72 hr treatment
Experimental: as §1, §2

MG63 = conditions: Homo sapiens, MG-63; MG63 (bone), 72 hr treatment
Experimental: as §1, §2

NCIH358M = conditions: NCI-H358M; NCIH358M (lung), 72 hr treatment
Experimental: as §1, §2

MDAMB436 = conditions: Homo sapiens, MDA-MB-436; MDAMB436 (breast), 72 hr treatment
Experimental: as §1, §2

CAKI1 = conditions: Homo sapiens, CAKI-1; CAKI1 (kidney), 72 hr treatment
Experimental: as §1, §2

SKNAS = conditions: Homo sapiens, SK-N-AS; SKNAS (brain), 72 hr treatment
Experimental: as §1, §2

HCT116 = conditions: Homo sapiens, HCT-116; HCT116 (colon), 72 hr treatment
Experimental: as §1, §2

J82 = conditions: Homo sapiens; J82 (bladder), 72 hr treatment
Experimental: as §1, §2

KASUMI-1 = conditions: Homo sapiens; KASUMI-1 (hematological), 72 hr treatment
Experimental: as §1, §2

MT3 = conditions: MT-3; MT3 (breast), 72 hr treatment
Experimental: as §1, §2

ASPC1 = conditions: Homo sapiens; ASPC1 (pancreas), 72 hr treatment
Experimental: as §1, §2

DLD1 = conditions: Homo sapiens, DLD-1; DLD1 (colon), 72 hr treatment
Experimental: as §1, §2

COLO205 = conditions: Homo sapiens, COLO 205; COLO205 (colon), 72 hr treatment
Experimental: as §1, §2

U87MG = conditions: Homo sapiens, U-87 MG; U87MG (brain), 72 hr treatment
Experimental: as §1, §2

IC50 (COLO678) | IC50 (ACHN) | IC50 (HT1080) | IC50 (RD) | IC50 (SAOS2) | IC50 (PANC1005) | IC50 (NCIH460) | IC50 (SKHEP1) | IC50 (786O) | IC50 (A375) | IC50 (SF295) | IC50 (SKMEL28) | IC50 (JIMT1) | IC50 (BXPC3) | IC50 (HEPG2) | IC50 (L-363) | IC50 (PC3) | IC50 (SKBR3) | IC50 (MG63) | Structure (SMILES) | IC50 (PBMC) | further results
< 10 µM | < 10 µM | < 10 µM | > 10 µM | > 10 µM | < 10 µM | < 10 µM | < 10 µM | < 10 µM | > 10 µM | < 10 µM | < 10 µM | < 10 µM | > 10 µM | < 10 µM | < 10 µM | > 10 µM | < 10 µM | > 10 µM | CC(C)(O)Cc1cc(-c2csc(-c3ccc(NS(C)(=O)=O)cc3Cl)c2)ccn1 [Compound I-9004, N-(3-chloro-4-(4-(2-(2-hydroxy-2-methylpropyl)pyridin-4-yl)thiophen-2-yl)phenyl)methanesulfonamide] | > 10 µM | IC50 (NCIH358M): < 10 µM; IC50 (MDAMB436): < 10 µM; IC50 (CAKI1): < 10 µM; IC50 (SKNAS): > 10 µM; IC50 (HCT116): < 10 µM; IC50 (J82): > 10 µM; IC50 (KASUMI-1): > 10 µM; IC50 (MT3): < 10 µM; IC50 (ASPC1): < 10 µM; IC50 (DLD1): < 10 µM; IC50 (COLO205): < 10 µM; IC50 (U87MG): > 10 µM
< 10 µM | < 10 µM | < 10 µM | > 10 µM | > 10 µM | < 10 µM | < 10 µM | < 10 µM | < 10 µM | > 10 µM | < 10 µM | < 10 µM | < 10 µM | > 10 µM | < 10 µM | < 10 µM | > 10 µM | < 10 µM | > 10 µM | CC(C)(CO)c1cc(-c2csc(-c3ccc(NS(C)(=O)=O)cc3Cl)c2)ccn1 [Compound I-8909, N-(3-chloro-4-(4-(2-(1-hydroxy-2-methylpropan-2-yl)pyridin-4-yl)thiophen-2-yl)phenyl)methanesulfonamide] | > 10 µM | IC50 (NCIH358M): < 10 µM; IC50 (MDAMB436): > 10 µM; IC50 (CAKI1): < 10 µM; IC50 (SKNAS): > 10 µM; IC50 (HCT116): < 10 µM; IC50 (J82): < 10 µM; IC50 (KASUMI-1): > 10 µM; IC50 (MT3): < 10 µM; IC50 (ASPC1): < 10 µM; IC50 (DLD1): < 10 µM; IC50 (COLO205): < 10 µM; IC50 (U87MG): > 10 µM
< 10 µM | < 10 µM | < 10 µM | > 10 µM | < 10 µM | > 10 µM | < 10 µM | < 10 µM | < 10 µM | > 10 µM | < 10 µM | < 10 µM | < 10 µM | < 10 µM | < 10 µM | < 10 µM | > 10 µM | < 10 µM | > 10 µM | CS(=O)(=O)Nc1ccc(-c2cc(-c3ccnc4c3OCCO4)cs2)c(Cl)c1 [Compound I-9017, N-(3-chloro-4-(4-(2,3-dihydro-[1,4]dioxino[2,3-b]pyridin-8-yl)thiophen-2-yl)phenyl)methanesulfonamide] | > 10 µM | IC50 (NCIH358M): < 10 µM; IC50 (MDAMB436): < 10 µM; IC50 (CAKI1): < 10 µM; IC50 (SKNAS): > 10 µM; IC50 (HCT116): < 10 µM; IC50 (J82): > 10 µM; IC50 (KASUMI-1): < 10 µM; IC50 (MT3): < 10 µM; IC50 (ASPC1): < 10 µM; IC50 (DLD1): < 10 µM; IC50 (COLO205): < 10 µM; IC50 (U87MG): < 10 µM

Reference: US20220056018A1, “SREBP INHIBITORS COMPRISING A THIOPHENE CENTRAL RING” (Capulus Therapeutics, LLC, priority 2019, published 2022)
